Laboratory results reported in US20250170248A1, “SMARCA DEGRADERS AND USES THEREOF” (Kymera Therapeutics, Inc., priority 2021, published 2025).

How the values were obtained:
Format in all cases: cell-based
[1] = biological target: T1, SMARCA2 (Homo sapiens, UniProt P51531); assay: MSD SMARCA2 degradation in A549 cell line; conditions: for Dmax: A549, A549 cells; for Dmax / DC50: 24 h; for DC50 / SMARCA2 MSD A549 degradation 24 h: Average Dmax %: A549 cells; for DC50: read-out: SMARCA2 MSD A549 degradation 24 h: Average external-Abs DC50
T1 sequence (P51531 whole entry): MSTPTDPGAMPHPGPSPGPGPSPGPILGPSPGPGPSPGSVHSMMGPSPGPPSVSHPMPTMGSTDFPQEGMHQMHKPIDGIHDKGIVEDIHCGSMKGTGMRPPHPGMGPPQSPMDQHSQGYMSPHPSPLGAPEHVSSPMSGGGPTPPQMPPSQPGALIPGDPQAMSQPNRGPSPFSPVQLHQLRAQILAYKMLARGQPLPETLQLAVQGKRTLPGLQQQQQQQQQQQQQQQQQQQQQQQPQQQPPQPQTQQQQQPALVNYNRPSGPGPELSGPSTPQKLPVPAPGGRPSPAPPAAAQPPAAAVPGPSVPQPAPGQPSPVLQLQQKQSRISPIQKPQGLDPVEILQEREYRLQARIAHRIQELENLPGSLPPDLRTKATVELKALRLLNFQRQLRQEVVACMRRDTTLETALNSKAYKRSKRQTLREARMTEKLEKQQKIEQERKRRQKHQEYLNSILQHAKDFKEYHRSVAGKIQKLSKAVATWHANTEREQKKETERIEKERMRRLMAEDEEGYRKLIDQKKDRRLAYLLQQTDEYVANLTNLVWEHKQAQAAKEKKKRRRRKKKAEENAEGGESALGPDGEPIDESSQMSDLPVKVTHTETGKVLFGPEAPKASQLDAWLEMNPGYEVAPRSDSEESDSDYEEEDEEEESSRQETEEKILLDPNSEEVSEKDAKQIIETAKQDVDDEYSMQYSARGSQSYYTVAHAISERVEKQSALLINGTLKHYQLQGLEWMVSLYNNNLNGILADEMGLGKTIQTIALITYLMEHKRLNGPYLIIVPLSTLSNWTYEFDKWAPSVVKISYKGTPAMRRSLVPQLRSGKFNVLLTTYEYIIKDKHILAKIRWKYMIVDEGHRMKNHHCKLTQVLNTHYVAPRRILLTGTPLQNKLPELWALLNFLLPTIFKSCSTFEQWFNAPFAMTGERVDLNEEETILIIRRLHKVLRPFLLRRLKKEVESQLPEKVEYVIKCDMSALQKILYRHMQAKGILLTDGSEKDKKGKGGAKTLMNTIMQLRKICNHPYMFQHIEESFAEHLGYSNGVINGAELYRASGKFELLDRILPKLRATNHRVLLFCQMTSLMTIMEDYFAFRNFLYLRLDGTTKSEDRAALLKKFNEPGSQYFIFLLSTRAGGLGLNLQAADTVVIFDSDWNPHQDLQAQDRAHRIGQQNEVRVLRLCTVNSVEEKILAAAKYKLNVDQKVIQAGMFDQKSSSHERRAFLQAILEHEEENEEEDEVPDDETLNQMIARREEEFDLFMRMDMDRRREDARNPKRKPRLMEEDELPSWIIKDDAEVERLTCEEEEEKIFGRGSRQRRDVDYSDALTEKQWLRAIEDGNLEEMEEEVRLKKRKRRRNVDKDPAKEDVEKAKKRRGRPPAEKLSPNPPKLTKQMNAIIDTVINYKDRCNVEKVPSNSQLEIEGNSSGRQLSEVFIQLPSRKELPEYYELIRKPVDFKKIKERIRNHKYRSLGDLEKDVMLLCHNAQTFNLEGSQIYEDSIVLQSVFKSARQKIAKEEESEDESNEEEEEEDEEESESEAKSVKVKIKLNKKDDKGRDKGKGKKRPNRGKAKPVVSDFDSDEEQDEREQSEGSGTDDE
Procedure: Example 10. MSD SMARCA2 Degradation in A549 Cell Line
Cells were seeded into 96-well plates (A549 cells: 2×10^4 cells/well/100 ul media) and incubated overnight. The next day, 200 nL compound were added into the intermediate plate with Echo (Labcyte 550) from source plate containing a 3-fold serial dilution from top concentration of 1 mM. The culture medium was changed with 8 0ul of fresh medium and 80 μL of 2× compound solution was added into the well to make a final concentration of 1000 nM, 333.3 nM, 111.1 nM, 37.04 nM, 12.35 nM, 4.115 nM, 1.372 nM, 0.457 nM, 0.152 nM and 0 nM (DMSO). The wells were mixed and then incubated for 24 hours. The media was aspirated from the cultures and 60 ul pre-chilled PIPA lysis buffer (Boston BioProducts BP-115D) with protease/phosphatase inhibitor (Roche 05892791001/Roche 04906837001) was added into the well to lyze the cells for 20 minutes at 4° C. The MSD plate (L15XA) was coated with 40 uL cell lysate and incubated at 4° C. overnight. The next day, the plate was washed three times with TBST (CST #9997S), 150 ul/well. The MSD plates was blocked with 150 ul blocking buffer per well and shaked for 1 hr at RT, 600 rpm. The blocking buffer was 3% Blocker A (MSD, R93BA-4) in TBST. The MSD plate was washed three times with 150 uL/well of TBST and 25 ul/well of detection antibody (Rabbit anti-SMARCA2/BRM antibody, 100 μg/mL, ab223735) was added at final concentration of 1 μg/mL diluted in 1% Blocking buffer and shaken for 1 hour at RT, 600 rpm. The MSD plate was washed three times with 150 ul/well of TBST and 25 ul/well of SULFO-TAG anti-rabbit antibody (MSD, R32AB-1) was added at final concentration of 1 μg/ml diluted in 1% Blocking buffer and shaken for 1 hour at RT, 600 rpm. The MSD plate was washed three times with 150 uL/well of TBST and 150 ul/well of 2× MSD reading buffer diluted from 4× (MSD, R92TC-2) with water was added. Lastly, the MSD instrument was read.
The letter codes for SMARCA2 degradation potency (DC50) include: A (<10 nM), B (10-50 nM), C (>50-100 nM), and D (>100 nM). The letter codes for the percentage of SMARCA degradation after 24 hours (Dmax %) include: A (>90% degradation), B (>70-90% degradation), C (50-70% degradation), and D (<50% degradation).

[2] = biological target: T2, SMARCA4 (Homo sapiens, UniProt P51532); assay: SMARCA4 Western blot degradation in MV4-11 cells; conditions: for Dmax: MV4-11, MV4-11 cells, read-out: SMARCA4 MSD MV411 degradation 24 h: average Dmax %; for Dmax / DC50: 24 h; for DC50 / SMARCA4 MSD MV411 degradation 24 h: average Dmax %: MV4-11 cells; for DC50: read-out: SMARCA4 MSD MV411 degradation 24 h: Mean external-Abs DC50
T2 construct: SMARCA2/SMARCA4 protein degradation selectivity in MV4-11 cells; endogenous in cells; host or cells: MV4-11
T2 sequence (P51532 whole entry): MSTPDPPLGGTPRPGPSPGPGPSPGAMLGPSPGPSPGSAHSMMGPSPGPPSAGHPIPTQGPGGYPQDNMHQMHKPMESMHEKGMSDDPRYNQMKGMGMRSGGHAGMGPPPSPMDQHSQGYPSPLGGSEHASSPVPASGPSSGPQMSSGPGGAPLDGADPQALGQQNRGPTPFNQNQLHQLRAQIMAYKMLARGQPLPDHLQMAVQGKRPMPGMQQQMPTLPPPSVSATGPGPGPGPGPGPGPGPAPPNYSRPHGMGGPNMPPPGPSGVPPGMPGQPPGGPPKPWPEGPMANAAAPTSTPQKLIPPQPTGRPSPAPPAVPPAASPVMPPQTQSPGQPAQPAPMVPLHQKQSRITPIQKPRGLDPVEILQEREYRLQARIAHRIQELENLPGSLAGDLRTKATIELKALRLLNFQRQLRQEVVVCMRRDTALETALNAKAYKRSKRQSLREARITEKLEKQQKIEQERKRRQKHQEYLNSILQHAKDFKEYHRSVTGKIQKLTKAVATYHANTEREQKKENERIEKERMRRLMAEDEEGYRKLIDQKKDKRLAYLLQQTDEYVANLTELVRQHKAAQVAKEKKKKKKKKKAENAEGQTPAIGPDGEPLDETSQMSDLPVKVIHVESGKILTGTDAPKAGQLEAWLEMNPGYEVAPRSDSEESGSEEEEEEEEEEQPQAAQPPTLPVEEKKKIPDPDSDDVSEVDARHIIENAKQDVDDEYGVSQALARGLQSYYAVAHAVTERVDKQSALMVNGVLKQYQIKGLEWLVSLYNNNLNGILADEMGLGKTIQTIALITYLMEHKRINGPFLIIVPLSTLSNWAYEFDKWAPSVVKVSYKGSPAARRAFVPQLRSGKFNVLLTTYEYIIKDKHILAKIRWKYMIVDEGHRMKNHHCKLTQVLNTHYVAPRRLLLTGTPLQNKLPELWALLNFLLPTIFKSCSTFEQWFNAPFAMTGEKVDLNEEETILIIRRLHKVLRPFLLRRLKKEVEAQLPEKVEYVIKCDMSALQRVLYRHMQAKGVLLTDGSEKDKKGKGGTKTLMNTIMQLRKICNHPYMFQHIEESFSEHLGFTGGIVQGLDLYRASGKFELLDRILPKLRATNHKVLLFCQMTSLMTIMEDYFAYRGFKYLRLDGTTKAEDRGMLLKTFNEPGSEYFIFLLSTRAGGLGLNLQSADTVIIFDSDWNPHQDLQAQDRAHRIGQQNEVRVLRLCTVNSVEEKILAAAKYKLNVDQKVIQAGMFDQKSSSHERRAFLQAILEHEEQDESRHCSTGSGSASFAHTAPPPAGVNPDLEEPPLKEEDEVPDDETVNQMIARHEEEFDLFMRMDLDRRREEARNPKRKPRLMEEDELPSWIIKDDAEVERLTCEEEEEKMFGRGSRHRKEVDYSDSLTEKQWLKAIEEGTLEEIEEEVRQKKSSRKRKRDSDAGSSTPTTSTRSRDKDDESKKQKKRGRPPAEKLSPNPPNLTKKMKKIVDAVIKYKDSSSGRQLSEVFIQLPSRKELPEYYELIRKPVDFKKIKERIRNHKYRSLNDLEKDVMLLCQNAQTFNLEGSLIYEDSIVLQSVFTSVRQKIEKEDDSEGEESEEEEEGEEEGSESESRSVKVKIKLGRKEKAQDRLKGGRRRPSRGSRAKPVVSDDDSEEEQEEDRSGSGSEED
Summary of the method: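 MV4-11 cells (4×10^6/well) treated with compound for 24 h, lysed in RIPA with protease/phosphatase inhibitors, and SMARCA2, SMARCA4 and beta-actin detected by Western blot with LI-COR readout. Values reported as letter-coded DC50, 24 h Dmax % and SMARCA2/4 selectivity fold.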

[3] = biological target: T1, SMARCA2; assay: SMARCA2 Western blot degradation in MV4-11 cells; design: SMARCA2/SMARCA4 protein degradation selectivity in MV4-11 cells; endogenous in cells; host or cells: MV4-11; conditions: for Dmax: MV4-11, MV4-11 cells, read-out: SMARCA2 MSD MV411 degradation 24 h: average Dmax %; for Dmax / DC50 / SMARCA2 MSD MV411 degradation 24 h: average Dmax %: 24 h; for DC50 / Selectivity in MV411 / SMARCA2 MSD MV411 degradation 24 h: average Dmax %: MV4-11 cells; for DC50: read-out: SMARCA2 MSD MV411 degradation 24 h: Mean external-Abs DC50; for Selectivity in MV411: SMARCA2/4 selectivity

Dmax [1] | DC50 [1] | Dmax [2] | DC50 [2] | Dmax [3] | DC50 [3] | Selectivity in MV411 [3] | SMARCA2 MSD A549 degradation 24 h: Average Dmax % [1] | SMARCA4 MSD MV411 degradation 24 h: average Dmax % [2] | SMARCA2 MSD MV411 degradation 24 h: average Dmax % [3] | SMILES
> 90% | < 10 nM | > 90% | 1 to 10 nM | > 90% | 1 to 10 nM | D (D (<10 fold)) | – | – | – | Cc1ncsc1-c1ccc(CNC(=O)[C@@H]2C[C@@H](O)CN2C(=O)C(c2cc(OC[C@H]3CC[C@H](N4CCC(c5cnc(N6CCc7[nH]c8nnc(-c9ccccc9O)cc8c7[C@H]6C)nc5)CC4)CC3)no2)C(C)C)cc1 (single isomer, unassigned) [I-1]
70 to 90% | 10 to 50 nM | > 90% | 10 to 100 nM | > 90% | 1 to 10 nM | D (D (<10 fold)) | – | – | – | Cc1ncsc1-c1ccc(CNC(=O)[C@@H]2C[C@@H](O)CN2C(=O)C(c2cc(OC[C@H]3CC[C@@H](N4CCC(c5cnc(N6CCc7[nH]c8nnc(-c9ccccc9O)cc8c7[C@H]6C)nc5)CC4)CC3)no2)C(C)C)cc1 (single isomer, unassigned) [I-2]
70 to 90% | > 100 nM | 50 to 70% | > 100 nM | 70 to 90% | 1 to 10 nM | A (A (>500 fold)) | – | – | – | Cc1ncsc1-c1ccc(CNC(=O)[C@@H]2C[C@@H](O)CN2C(=O)[C@@H](NC(=O)[C@H]2CC3(C2)C[C@H](N2CCC(c4ccnc(N5CCN6c7cc(-c8ccccc8O)nnc7NC[C@@H]6C5)n4)CC2)C3)C(C)(C)C)cc1 (single isomer, unassigned) [I-3]
– | > 100 nM | – | > 100 nM | – | 1 to 10 nM | B (B (>100-500 fold)) | C (C (50-70% degradation)) | D (D (<50% degradation)) | B (B (>70-90% degradation)) | Cc1ncsc1-c1ccc(CNC(=O)[C@@H]2C[C@@H](O)CN2C(=O)[C@@H](NC(=O)[C@H]2CC3(C2)C[C@H](N2CCC(c4ccnc(N5CCN6c7cc(-c8ccccc8O)nnc7NC[C@@H]6C5)n4)CC2)C3)C(C)(C)C)cc1 (single isomer, unassigned) [I-4]
> 90% | 10 to 50 nM | < 50% | > 100 nM | > 90% | 1 to 10 nM | A (A (>500 fold)) | – | – | – | Cc1ncsc1-c1ccc(CNC(=O)[C@@H]2C[C@@H](O)CN2C(=O)[C@@H](NC(=O)[C@H]2CC3(C2)C[C@H](N2CCC(c4ccnc(N5CCN6c7cc(-c8ccccc8O)nnc7NC[C@H]6C5)n4)CC2)C3)C(C)(C)C)cc1 (single isomer, unassigned) [I-5]
> 90% | 10 to 50 nM | 70 to 90% | 10 to 100 nM | 70 to 90% | 1 to 10 nM | D (D (<10 fold)) | – | – | – | Cc1ncsc1-c1ccc(CNC(=O)[C@@H]2C[C@@H](O)CN2C(=O)C(c2cc(N3CCC(CCN4CCC(c5cnc(N6CCc7[nH]c8nnc(-c9ccccc9O)cc8c7[C@@H]6C)nc5)CC4)CC3)no2)C(C)C)cc1 (single isomer, unassigned) [I-8]
70 to 90% | 10 to 50 nM | 70 to 90% | 10 to 100 nM | > 90% | 1 to 10 nM | C (C (10-100 fold)) | – | – | – | Cc1ncsc1-c1ccc(CNC(=O)[C@@H]2C[C@@H](O)CN2C(=O)C(c2cc(N3CC4(CCC(N5CCC(c6cnc(N7CCc8[nH]c9nnc(-c%10ccccc%10O)cc9c8[C@@H]7C)nc6)CC5)CC4)C3)no2)C(C)C)cc1 (single isomer, unassigned) [I-9]
> 90% | 10 to 50 nM | > 90% | 1 to 10 nM | > 90% | < 1 nM | D (D (<10 fold)) | – | – | – | Cc1ncsc1-c1ccc(CNC(=O)[C@@H]2C[C@@H](O)CN2C(=O)C(c2cc(N3CC4(CC(N5CCC(c6cnc(N7CCc8[nH]c9nnc(-c%10ccccc%10O)cc9c8[C@H]7C)nc6)CC5)C4)C3)no2)C(C)C)cc1 (single isomer, unassigned) [I-10]
70 to 90% | 50 to 100 nM | > 90% | 10 to 100 nM | 70 to 90% | 10 to 100 nM | D (D (<10 fold)) | – | – | – | Cc1ncsc1-c1ccc(CNC(=O)[C@@H]2C[C@@H](O)CN2C(=O)C(c2cc(N3CCC4(CC3)CC(N3CCC(c5cnc(N6CCc7[nH]c8nnc(-c9ccccc9O)cc8c7[C@@H]6C)nc5)CC3)C4)no2)C(C)C)cc1 (single isomer, unassigned) [I-12]
70 to 90% | < 10 nM | > 90% | 1 to 10 nM | > 90% | < 1 nM | D (D (<10 fold)) | – | – | – | Cc1ncsc1-c1ccc(CNC(=O)[C@@H]2C[C@@H](O)CN2C(=O)C(c2cc(N3CC4(CCC(N5CCC(c6cnc(N7CCc8[nH]c9nnc(-c%10ccccc%10O)cc9c8[C@H]7C)nc6)CC5)CC4)C3)no2)C(C)C)cc1 (single isomer, unassigned) [I-14]
> 90% | 10 to 50 nM | > 90% | 10 to 100 nM | > 90% | 1 to 10 nM | C (C (10-100 fold)) | – | – | – | Cc1ncsc1-c1ccc(CNC(=O)[C@@H]2C[C@@H](O)CN2C(=O)C(c2cc(OC[C@H]3CC[C@H](N4CCC(c5cnc(N6CCc7[nH]c8nnc(-c9ccccc9O)cc8c7[C@@H]6C)nc5)CC4)CC3)no2)C(C)C)cc1 (single isomer, unassigned) [I-15]
70 to 90% | 50 to 100 nM | 70 to 90% | 10 to 100 nM | > 90% | 1 to 10 nM | D (D (<10 fold)) | – | – | – | Cc1ncsc1-c1ccc(CNC(=O)[C@@H]2C[C@@H](O)CN2C(=O)C(c2cc(OC[C@H]3CC[C@@H](N4CCC(c5cnc(N6CCc7[nH]c8nnc(-c9ccccc9O)cc8c7[C@@H]6C)nc5)CC4)CC3)no2)C(C)C)cc1 (single isomer, unassigned) [I-16]
> 90% | 10 to 50 nM | > 90% | 1 to 10 nM | > 90% | < 1 nM | C (C (10-100 fold)) | – | – | – | C[C@H](NC(=O)[C@@H]1C[C@@H](O)CN1C(=O)[C@@H](NC(=O)[C@H]1CCC2(CC1)C[C@H](N1CCC(c3cnc(N4CCN5c6cc(-c7ccccc7O)nnc6NC[C@H]5C4)nc3)CC1)C2)C(C)(C)C)c1ccc(-c2ccnn2C)cc1 (single isomer, unassigned) [I-21]
– | 10 to 50 nM | – | 10 to 100 nM | – | < 1 nM | C (C (10-100 fold)) | A (A (>90% degradation)) | B (B (>70-90% degradation)) | A (A (>90% degradation)) | C[C@H](NC(=O)[C@@H]1C[C@@H](O)CN1C(=O)[C@@H](NC(=O)[C@H]1CCC2(CC1)C[C@H](N1CCC(c3cnc(N4CCN5c6cc(-c7ccccc7O)nnc6NC[C@H]5C4)nc3)CC1)C2)C(C)(C)C)c1ccc(-c2ccnn2C)cc1 (single isomer, unassigned) [I-22]
